Measured values from ChEMBL document CHEMBL1155255, “Ruthenium complexes endowed with potent anti-Trypanosoma cruzi activity: Synthesis, biological characterization and structure-activity relationships” (Bioorg Med Chem, 2009).

What was measured:
[1] = Cytotoxicity against BALB/c mouse splenocytes after 24 hrs by [3H]thymidine incorporation assay; assay type: cell-based; conditions: splenocyte
Trypanosoma cruzi [2] = test: Antitrypanosomal activity against Trypanosoma cruzi Y epimastigote form after 11 days by Trypan blue exclusion method; assay type: functional, organism-based; conditions: 264 h
Trypanosoma cruzi [3] = test: Antitrypanosomal activity against Trypanosoma cruzi Y trypomastigote form after 24 hrs by Trypan blue exclusion method; assay type: functional, organism-based

Compound | IC50 (Trypanosoma cruzi [2]) | IC50 (Trypanosoma cruzi [3]) | Activity [1]
O=C1CSC(N/N=C\CSc2ccc(Br)cc2)=N1 | 42.9 µM |  | > 100 µg/mL
Cc1ccc(SC/C=N\NC2=NC(=O)CS2)cc1 | 92.3 µM | 20 µM | > 100 µg/mL
O=C1CSC(N/N=C\CSc2ccc(Cl)cc2)=N1 | 43.9 µM | 82.4 µM | > 100 µg/mL
O=C(Cn1ccnc1[N+](=O)[O-])NCc1ccccc1 [BENZNIDAZOLE] | 6.6 µM |  | 25 µg/mL
CC1CS(=O)(=O)CCN1/N=C/c1ccc([N+](=O)[O-])o1 (stereo unspecified) [NIFURTIMOX] | 1.9 µM |  | 1 µg/mL

Further compounds by falling IC50 (Trypanosoma cruzi [2]), results first:

IC50 (Trypanosoma cruzi [2]) | IC50 (Trypanosoma cruzi [3]) | Compound | Activity [1]
83.3 µM |  | C/C(CSc1ccccc1)=N/NC1=NC(=O)C(C)S1 (stereo unspecified) | > 100 µg/mL
63.4 µM | 84.8 µM | Cc1ccc(SC/C=N\NC2=NC(=O)C(C)S2)cc1 (stereo unspecified) | > 100 µg/mL
35 µM | 7.8 µM | O=C1CSC(N/N=C\CSc2ccccc2)=N1 | > 100 µg/mL
2.9 µM | 10 µM | O=C1CSC(N/N=C\CCSc2ccccc2)=N1 | > 100 µg/mL
0.3 µM | 48.2 µM | CCC1SC(N/N=C\CSc2ccccc2)=NC1=O (stereo unspecified) | > 100 µg/mL
